Laboratory results from article PMC10065799, “High-throughput profiling of sequence recognition by tyrosine kinases and SH2 domains using bacterial peptide display” (eLife, 2023).

Assays:
Experiment in all cases: pTyr-Var library bacterial peptide display kinase screen (enrichment scores)
EPHB1 kinase domain = assay type: biochemical, human; details: for Screen (variant relative to reference peptide, measured in the pTyr-Var library screen): sheet "EPHB1", variant seq vs reference seq, bacterial peptide display enrichment; for Screen: sheet EPHB1, effect of the variant peptide relative to its reference peptide in the pTyr-Var library screen (enrichment scores)
EPHB2 kinase domain = assay type: biochemical, human; details: sheet EPHB2
c-Src kinase domain = c-Src kinase domain (Homo sapiens, UniProt P12931); assay type: biochemical; details: sheet "Src";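 further: log2 fold change in enrichment of variant over reference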
Fer kinase domain = assay type: biochemical, mouse; details: sheet "Fer"
c-Abl kinase domain = biological target: T1, c-Abl kinase domain (Mus musculus, UniProt P00520); assay type: biochemical; details: sheet "Abl"; effect of variant peptide relative to its reference peptide in pTyr-Var library screen (enrichment);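 further: log2 fold change in enrichment of variant over reference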
T1 sequence (P00520 242-493 limits assumed): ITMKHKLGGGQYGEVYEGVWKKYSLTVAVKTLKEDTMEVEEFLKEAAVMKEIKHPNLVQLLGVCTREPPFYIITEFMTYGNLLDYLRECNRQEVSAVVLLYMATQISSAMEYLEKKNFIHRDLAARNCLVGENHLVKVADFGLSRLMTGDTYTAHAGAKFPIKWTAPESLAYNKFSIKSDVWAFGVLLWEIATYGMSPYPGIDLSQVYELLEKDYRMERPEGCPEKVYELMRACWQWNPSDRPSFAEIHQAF

[1] = effect of variant peptide relative to its reference peptide in the pTyr-Var library screen (enrichment scores)
[2] = variant peptide versus its reference peptide in the pTyr-Var library screen
[3] = value of the variant peptide against its reference peptide in the pTyr-Var library screen with Fer
[4] = effect of the variant peptide relative to its reference peptide in the pTyr-Var library screen
[5] = variant peptide relative to its reference peptide, pTyr-Var library screen enrichment
[6] = effect of the variant relative to its reference peptide in the pTyr-Var library screen

Sequence: LTFHMYADPNI [SOS1_Y618_F623I_YF]
- Screen (variant relative to reference peptide, measured in the pTyr-Var library screen) (EPHB1 kinase domain): 0.02693
- Screen (EPHB2 kinase domain; [1]): 0.3507

Sequence: MSRFIYSTDFF [NTRK1_Y676_D674Y_YF]
- Screen (c-Src kinase domain; [2]): -0.3372
- Screen (Fer kinase domain; [3]): -0.8782
- Screen (EPHB1 kinase domain): -1.34
- Screen (EPHB2 kinase domain; [1]): -1.706

Sequence: NDFGNYSNQSS [HNRNPA1_Y318_N319S]
- Screen (EPHB1 kinase domain): 4.118
- Screen (EPHB2 kinase domain; [1]): 2.422

Sequence: HNLDFYKETTN [FGFR3_Y648_K650E_YF]
- Screen (c-Src kinase domain; [4]): -1.013
- Screen (Fer kinase domain; [3]): -1.533
- Screen (EPHB1 kinase domain): -0.9671
- Screen (EPHB2 kinase domain; [1]): -1.243

Sequence: SQINLYQDVML [ZNF806_Y33_A28S]
- Screen (Fer kinase domain; [5]): -0.1473
- Screen (variant relative to reference peptide, measured in the pTyr-Var library screen) (EPHB1 kinase domain): -0.1927
- Screen (EPHB2 kinase domain; [6]): -0.4727

Sequence: EFHRLYEEFTR [PIK3R1_Y467_D464H_YF]
- Screen (c-Src kinase domain; [2]): 0.07006
- Screen (Fer kinase domain; [3]): -0.6972
- Screen (EPHB1 kinase domain): 0.6076
- Screen (EPHB2 kinase domain; [1]): -0.0373

Sequence: NREGVYTVSAP [TGFBI_Y537_F540S]
- Screen (c-Src kinase domain; [2]): -0.08291
- Screen (Fer kinase domain; [5]): -3.034
- Screen (variant relative to reference peptide, measured in the pTyr-Var library screen) (EPHB1 kinase domain): -2.126
- Screen (EPHB2 kinase domain; [1]): -1.97

Sequence: ITNVLYHVVGW [GBA_Y412_L410V]
- Screen (c-Src kinase domain; [4]): -0.5492
- Screen (Fer kinase domain; [3]): -0.5496
- Screen (EPHB1 kinase domain): -1.243
- Screen (EPHB2 kinase domain; [1]): -1.361

Sequence: SVVVLYEPPEV [TP53_Y220_P219L]
- Screen (Fer kinase domain; [5]): 3.283
- Screen (variant relative to reference peptide, measured in the pTyr-Var library screen) (EPHB1 kinase domain): 3.168
- Screen (EPHB2 kinase domain; [6]): 4.006

Sequence: MTFQNYRQALF [FAM20C_Y279_G280R]
- Screen (EPHB2 kinase domain; [1]): -1.483

Sequence: SRDPFYEMLTA [CYTH1_Y382_A386T]
- Screen (c-Src kinase domain; [4]): 0.1014
- Screen (Fer kinase domain; [3]): -0.1692
- Screen (EPHB1 kinase domain): 0.4954
- Screen (EPHB2 kinase domain; [1]): 0.7334

Sequence: FTDPFYDFEIE [ZC3H18_Y372_A368T_YF]
- Screen (c-Src kinase domain; [2]): 0.548
- Screen (c-Abl kinase domain): 2.472
- Screen (variant relative to reference peptide, measured in the pTyr-Var library screen) (EPHB1 kinase domain): 0.9547

Sequence: KSRQIYDAFIM [GRK3_Y109_R104K_YF]
- Screen (c-Src kinase domain; [4]): 0.6859
- Screen (Fer kinase domain; [3]): 0.5964
- Screen (EPHB1 kinase domain): 0.9818
- Screen (EPHB2 kinase domain; [1]): 1.299

Sequence: RNFGTYTAGLS [RHBDD1_Y264_D262G_YF]
- Screen (EPHB1 kinase domain): -2.368
- Screen (EPHB2 kinase domain; [1]): -2.902

Sequence: LVTCSYLLGNS [LMNA_Y646_R644C]
- Screen (EPHB2 kinase domain; [1]): 1.308

Sequence: GTSLIYWILFT [G6PC3_Y214_T216I]
- Screen (c-Src kinase domain; [4]): -1.381
- Screen (Fer kinase domain; [3]): -1.528
- Screen (EPHB1 kinase domain): -1.942
- Screen (EPHB2 kinase domain; [1]): -1.51

Sequence: SEPDLYFDPRG [PKP1_Y160_C161Y_YF]
- Screen (c-Src kinase domain; [2]): 1.044
- Screen (Fer kinase domain; [3]): -1.5
- Screen (EPHB1 kinase domain): 1.592
- Screen (EPHB2 kinase domain; [1]): 1.913

Sequence: VKANTYENFWP [GATM_Y100_K102N_YF]
- Screen (c-Src kinase domain; [4]): 0.5982
- Screen (Fer kinase domain; [3]): 1.784
- Screen (EPHB1 kinase domain): 2.281
- Screen (EPHB2 kinase domain; [1]): 2.516

Sequence: RVLQLYGCSPS [ASTL_Y279_K277Q]
- Screen (EPHB2 kinase domain; [1]): 1.225

Sequence: KAWGIYDCQQP [CYP3A7_Y75_V71A]
- Screen (c-Src kinase domain; [4]): 0.09779
- Screen (Fer kinase domain; [3]): 0.5201
- Screen (EPHB1 kinase domain): 0.3477
- Screen (EPHB2 kinase domain; [1]): 0.8548

Sequence: RIGRKYKRVRF [F8_Y442_K444R]
- Screen (c-Src kinase domain; [4]): 3.277
- Screen (EPHB2 kinase domain; [1]): 1.084

Sequence: VARAVYQAVLS [SMG1_Y549_H546R]
- Screen (c-Src kinase domain; [2]): -1.809
- Screen (Fer kinase domain; [5]): -2.673
- Screen (variant relative to reference peptide, measured in the pTyr-Var library screen) (EPHB1 kinase domain): -4.046
- Screen (EPHB2 kinase domain; [1]): -3.744

Sequence: TLSGTYQFIIA [FOXL2_Y81_I80T_YF]
- Screen (c-Src kinase domain; [4]): -2.746
- Screen (Fer kinase domain; [3]): -3.428
- Screen (EPHB1 kinase domain): -3.534
- Screen (EPHB2 kinase domain; [1]): -3.51

Sequence: RQQQDYWLKDV [ANPEP_Y600_I603K]
- Screen (Fer kinase domain; [3]): -2.803
- Screen (EPHB1 kinase domain): -4.233
- Screen (EPHB2 kinase domain; [1]): -3.253

Sequence: AVISVYDLVVV [PSEN1_Y256_A260V]
- Screen (c-Src kinase domain; [2]): -0.2228
- Screen (Fer kinase domain; [3]): 0.009469
- Screen (EPHB1 kinase domain): -0.1318
- Screen (EPHB2 kinase domain; [1]): -0.3059

Sequence: RTVPLYESLRK [DDB1_Y718_P721L]
- Screen (c-Src kinase domain; [4]): 1.169
- Screen (Fer kinase domain; [3]): -0.4469
- Screen (EPHB1 kinase domain): 0.1495
- Screen (EPHB2 kinase domain; [1]): -0.0735

Sequence: VDGSLYETHPQ [HK1_Y417_K418E]
- Screen (Fer kinase domain; [3]): 4.441
- Screen (EPHB1 kinase domain): 1.816
- Screen (EPHB2 kinase domain; [1]): 2.555
